Here are results for 26 compounds from patent US5554752A, “Spirovesamicols” (Regents of the University of Minnesota, priority 1995, dated 1996).

Series [1] deals with vesamicol receptor. The experiment in a line: Vesamicol receptor binding ([3H]vesamicol). The conditions noted are these: for Ki: [3H]vesamicol approx. 5 nM, 24 h equilibration, racemates, read-out: Ki (Inhibitory potency of Spirovesamicols).
Series [2] deals with vesamicol receptor. The conditions noted are these: literature, cited from earlier work.
The subject of series [3] is cholinergic neurotransmission. As to conditions: Brittain et al, 1969; cited from earlier work.
The next series concerns α-adrenoceptor. As to conditions: at higher doses; cited from earlier work.
Series [4] relates to storage and release of neurotransmitter. The conditions noted are these: literature; cited from earlier work.
The subject of series [5] is cholinergic neurotransmission. Description: Pharmacological Activity of Spirovesamicols in Male Wistar Rats (anticholinergic signs and lethality, intraperitoneal). In kind it is in vivo, rat. As to conditions: i.p. Here is the method: Rats and mice were injected intraperitoneally with solutions of the compounds in aqueous EtOH (or aqueous DMSO). […] LD20 lethal dose for 20% of animals tested; LD40, lethal dose for 40%; LD60, lethal dose for 60%; L100, lethal dose for all animals; NR, no visible pharmacologic reaction; S, sluggishness and reduced locomotor activity; +, mild symptoms of anticholinergic activity; ++, severe signs of anticholinergic activity.

For series [6], the system named is cholinergic neurotransmission. Description: Pharmacological Activity of Spirovesamicols in Male Swiss Webster Mice (anticholinergic signs and lethality, intraperitoneal). As to conditions: i.p. In kind it is in vivo, mouse. Here is the method: In vivo anticholinergic activity was evaluated in Swiss Webster mice. Blockade of cholinergic neurotransmission (or anticholinergic activity) was manifested in a rapidly developing respiratory distress, spasms and paralysis. At lethal doses these symptoms were followed by death within 10-20 min. As evident in Tables 1 and 2, the representative compounds tested were lethal at doses as low as 10 umol/Kg.
Rats and mice were injected intraperitoneally with solutions of the compounds in aqueous EtOH (or aqueous DMSO). […] At lethal doses, death generally occurred within 20 minutes following the injection. LD20 lethal dose for 20% of animals tested; LD40, lethal dose for 40%; LD60, lethal dose for 60%; L100, lethal dose for all animals; NR, no visible pharmacologic reaction; S, sluggishness and reduced locomotor activity; +, mild symptoms of anticholinergic activity; ++, severe signs of anticholinergic activity.

Where a name gives a salt, the structure may show the parent alone.

Turning to “1'(4-Hydroxy-1-(2-fluorobenzyl)piperidin-3-yl)-spiro[1H-indene-1,4'-piperidine]dihydrochloride [Compound 11f]”, on vesamicol receptor [1], the Ki – broadly, the dissociation constant of the complex between target and ligand, obtained from inhibition or displacement – is 248 ± 25 pM.

On to `O[C@@H]1CCCC[C@H]1N1CCC(c2ccc(Cl)cc2)CC1` (relative stereo) [Compound 1b], for which the “potency/activity relative to vesamicol, in words” value in the series on vesamicol receptor [2] is “between two and eight times less potent than vesamicol”.

`O=[N+]([O-])c1ccc(C2CCN([C@@H]3CCCC[C@H]3O)CC2)cc1` (relative stereo) [Compound 1c]: the “potency/activity relative to vesamicol, in words” value in the series on vesamicol receptor [2] was “between two and eight times less potent than vesamicol”.

In the case of `Nc1cccc2c1C[C@@H](N1CCC(c3ccccc3)CC1)[C@H](O)C2` (relative stereo) [Compound 2b], in the series with vesamicol receptor [2], the “potency/activity relative to vesamicol, in words” value is “a potent VR ligand”.

In the case of `O[C@@H]1CCCC[C@H]1N1CCc2ccccc2C1` (relative stereo) [Compound 6a], in the series with vesamicol receptor [2] (less active than vesamicol), the “loss of activity relative to vesamicol” value is recorded as 125 times.

On to `O=C1NCN(c2ccccc2)C12CCN([C@@H]1CCCC[C@H]1O)CC2` (relative stereo) [Compound 6b], for which the “potency/activity relative to vesamicol, in words” value with vesamicol receptor [2] was “inactive”.

On to `O[C@@H]1CCCC[C@H]1N1CCC(c2ccccc2)CC1` [(-)-vesamicol, reference compound], for which the Kd (as a rule, the free concentration of one partner at which half of the binding sites on the other are occupied at equilibrium, for simple one-to-one binding) at vesamicol receptor [1] (conditions of this assay, read-out: dissociation constant (kd)) turned out to be 1000 pM.

In the case of `OC1CCCCC1N1CCC(c2ccccc2)CC1` (centres unmarked) [Compound 1, 2-(4-phenylpiperidino)cyclohexanol], the Ki at vesamicol receptor [1] is 1000 pM. In addition, in series [3], the “effects in laboratory animals” value is “induces respiratory paralysis, spasms and death”. Also, in the series on α-adrenoceptor, the α-adrenoceptor activity entry is reported as “exhibits α-adrenoceptor activity at higher doses”. Moreover, in series [4], the “effect on storage and release of neurotransmitter” value was “selectively inhibits the storage and release of neurotransmitter”; the “effect on synthesis of neurotransmitter” value is listed as “without directly affecting the synthesis of this neurotransmitter”.

In the case of `OC(Cc1ccc(Br)cc1)CN1CCC(c2ccccc2)CC1` (centres unmarked) [Compound 2a], the “potency/activity relative to vesamicol, in words” value in the series on vesamicol receptor [2] was “equipotent with vesamicol”.

Take `COc1ccc2c3c1OC1C(O)C=CC4C(C2)N([C@@H]2CCCC[C@H]2O)CCC341` (some centres unmarked) [Compound 7a]: the “potency/activity relative to vesamicol, in words” value in the series on vesamicol receptor [2] is “inactive”.

In the case of `COc1ccc2c3c1OC1C(=O)CCC4C(C2)N([C@@H]2CCCC[C@H]2O)CCC314` (some centres unmarked) [Compound 7b], the “potency/activity relative to vesamicol, in words” value in the series on vesamicol receptor [2] was “inactive”.

Regarding `OC1CCCCC1N1CCC2(C=Cc3ccccc32)CC1` (centres unmarked) [Compound 11a, 1'-(2-Hydroxycylohex-1-yl)spiro[1H-indene-1,4'-piperidine]Hydrochloride], the “Pharmacological Activity” value in series [5] (10 umol/Kg) is reported as “+”; in series [5] (22.5 umol/Kg), “++”; in series [5] (45 umol/Kg) it was “LD100”; in series [6] (12.5 umol/Kg), “+”; in series [6] (25 umol/Kg), “LD40 (lethal dose for 40%)”; in series [6] (50 umol/Kg), “LD60 (lethal dose for 60%)”. Further, in series [6] (100 umol/Kg), the “Pharmacological Activity” value is given as “LD100”. For the same compound, the Ki on vesamicol receptor [1] came to 622 ± 82 pM.

As for `OC1Cc2ccccc2CC1N1CCC2(C=Cc3ccccc32)CC1` (centres unmarked) [Compound 11b, 1'-(2-Hydroxy-1,2,3,4-tetrahydronaphth-3-yl)-spiro[1H-indene-1,4'-piperidine]Hydrochloride], the “Pharmacological Activity” value in series [5] (1 umol/Kg) was “++”; in series [5] (5 umol/Kg) it was “LD100”; in series [5] (10 umol/Kg) it was “LD100”; in series [5] (20 umol/Kg), “LD100”; in series [6] (1.25 umol/Kg), “+”; in series [6] (2.5 umol/Kg), “LD20 (lethal dose for 20% of animals tested)”. For the same compound, the “Pharmacological Activity” value is reported as “LD20 (lethal dose for 20% of animals tested)” in series [6] (5.0 umol/Kg), “LD40 (lethal dose for 40%)” in series [6] (10 umol/Kg), “LD60 (lethal dose for 60%)” in series [6] (20 umol/Kg) and “LD100” in series [6] (40 umol/Kg). Besides, the Ki on vesamicol receptor [1] is 121 ± 32 pM.

Turning to `OC1CCN(Cc2ccccc2I)CC1N1CCC2(C=Cc3ccccc32)CC1` (centres unmarked) [Compound 11c, 1'-(4-Hydroxy1-(2-iodobenzyl)piperidin-3-yl)-spiro[1H-indene-1,4'-piperidine]dihydrochloride], on vesamicol receptor [1], the Ki is 798 ± 187 pM.

`OC1CCN(Cc2cccc(I)c2)CC1N1CCC2(C=Cc3ccccc32)CC1` (centres unmarked) [Compound 11d, 1'-(4-Hydroxy1-(3-iodobenzyl)piperidin-3-yl)-spiro[1H-indene-1,4'-piperidine]dihydrochloride]: at vesamicol receptor [1], the Ki is 264 ± 78 pM.

With `OC1CCCCC1N1CCC2(CCCc3ccccc32)CC1` (centres unmarked) [Compound 13a, 3,4-Dihydro-1'-(2-Hydroxycyclohex-1-yl)-spiro[naphthalene-1,4'-piperidine]hydrochloride], at vesamicol receptor [1], the Ki amounted to 24200 ± 5710 pM.

With `OC1Cc2ccccc2CC1N1CCC2(CCCc3ccccc32)CC1` (centres unmarked) [Compound 13b, 3,4-Dihydro-1'-(2-hydroxy-1,2,3,4-tetrahydronaphth-3-yl)-spiro[naphthalene-1(2H), 4'-piperidine]hydrochloride], the Ki at vesamicol receptor [1] was 18400 ± 14000 pM.

Turning to `OC1CCN(Cc2ccccc2I)CC1N1CCC2(CCCc3ccccc32)CC1` (centres unmarked) [Compound 13c, 1'-(1-(2-Iodobenzyl)-4-hydroxypiperidin-3-yl)-3,4-dihydrospiro[naphthalene-1(2H),4'-piperidine]], the Ki on vesamicol receptor [1] amounted to 5800 ± 1700 pM.

With `OC1CCN(Cc2cccc(I)c2)CC1N1CCC2(CCCc3ccccc32)CC1` (centres unmarked) [Compound 13d, 1'-(1-(3-Iodobenzyl)-4-hydroxypiperidin-3-yl)-3,4-dihydrospiro[naphthalene-1(2H),4'-piperidine]], the results for the “Pharmacological Activity” value in series [5] (50 umol/Kg) and in series [5] (125 umol/Kg) were “S” and “LD100”, respectively. Moreover, on vesamicol receptor [1], the Ki worked out at 82 ± 20 pM. For the same compound, the “potency relative to vesamicol, in words” value with vesamicol receptor [1] (compared with vesamicol / (-)-vesamicol) is given as “at least ten times more potent than (-)-vesamicol”.

Consider `OC1CCN(Cc2ccc(F)cc2)CC1N1CCC2(CCCc3ccccc32)CC1` (centres unmarked) [Compound 13f, 1'-(1-(4-fluorobenzyl)-4-hydroxypiperidin-3-yl)-3,4-dihydrospiro[naphthalene-1(2H),4'-piperidine]], for which the Ki at vesamicol receptor [1] was 2600 ± 900 pM.

Regarding `OC1Cc2ccccc2CC1N1CCC2(CC1)C(Br)=Cc1ccccc12` (centres unmarked) [Compound 14, 1'-(2-Hydroxy-1,2,3,4-tetrahydronaphth-3-yl)-spiro[2-bromo-1H-indene-1,4'-piperidine]Hydrochloride], the figures for the “Pharmacological Activity” value in series [5] (12.5 umol/Kg), in series [5] (25 umol/Kg) and in series [5] (50 umol/Kg) were “+”, “LD100” and “LD100”, respectively. The “increase in potency on bromine substitution at C2” value with vesamicol receptor [1] (11a vs 14) worked out at 20 fold. Besides, the inhibition constant Ki at vesamicol receptor [1] was 38 ± 6 pM.

As to `OC1Cc2ccccc2CC1N1CCC2(C=Cc3c(Br)cccc32)CC1` (centres unmarked) [Compound 15, 1'-(2-Hydroxy-1,2,3,4-tetrahydronaphth-3-yl)-spiro[4-bromo-1H-indene-1,4'-piperidine]Hydrochloride], in series [5] (50 umol/Kg), the “Pharmacological Activity” value is recorded as “+”. Besides, on vesamicol receptor [1], the Ki is 212 ± 63 pM.

As to `OC1Cc2ccccc2CC1N1CCC2(C=Cc3cc(Br)ccc32)CC1` (centres unmarked) [Compound 16, 1'-(2-Hydroxy-1,2,3,4-tetrahydronaphth-3-yl)-spiro[5-bromo-1H-indene-1,4'-piperidine]Hydrochloride], at vesamicol receptor [1], the Ki was determined as 1400 ± 300 pM.

As for `OC1Cc2ccccc2CC1N1CCC2(C=Cc3ccc(Br)cc32)CC1` (centres unmarked) [Compound 17, 1'-(2-Hydroxy-1,2,3,4-tetrahydronaphth-3-yl)spiro[6-bromo-1H-indene-1,4'-piperidine]Hydrochloride], the inhibition constant (Ki) at vesamicol receptor [1] is 271 ± 56 pM. Further, the “effect of bromine on potency” value in the series on vesamicol receptor [1] (in words) is listed as “slight reduction in potency”.

In the case of `OC1CCN(Cc2cccc(I)c2)CC1N1CCC(c2ccccc2)CC1` (centres unmarked) [MIBT], in the series on vesamicol receptor [2], the “potency/activity relative to vesamicol, in words” value is reported as “potent ligands”.

On to `OC1CCNCC1N1CCC(c2ccccc2)CC1` (centres unmarked) [trozamicol], for which the “potency/activity relative to vesamicol, in words” value in the series on vesamicol receptor [2] is “poor ligand for vesamicol receptor”.
